Here are results for one substance from paper PMC12406195, “Understanding the Modes of Action of β‑Ketoiminato Iridium(III) Complexes in Cancer Cells” (Inorganic Chemistry, 2025).

The subject of one assay is plasmid DNA. The experiment in a line: Plasmid DNA interaction, agarose gel electrophoresis. It counts as biochemical. The following applies: 200 ng plasmid DNA, 100–400 μM, cell-free. The protocol:
The ability of compounds to intercalate, nick, or cleave DNA can be evaluated using gel electrophoresis with plasmid DNA. In this study, in vitro plasmid DNA assays were performed by incubating 200 ng of plasmid DNA with different concentrations (100–400 μM) of 1 or CDDP, which served as a positive control. The DNA fragments were then separated via agarose gel electrophoresis, and potential changes in DNA migration patterns were analyzed.
5 Plasmid DNA (200 ng) was incubated with varying concentrations (100, 200, and 400 μM) of compound 1 or CDDP for 24 h at room temperature. The DNA was then separated via agarose gel electrophoresis, and the intensity of supercoiled and nicked circular DNA bands was quantified and expressed as mean ± SEM (n = 4).
(§1) MDA-MB-231 cells at 4000 cells/well were seeded into a black clear -bottom 96-well plate using phenol-red free complete RMPI medium, and incubated for 48 h. […] Fluorescence images were obtained using a Zeiss Observer 7 inverted microscope at excitation at 488 nm and emission at 509 […]
(§2) Plasmid DNA (200 ng, pBOS -H2B-GFP, BD Biosciences) was incubated overnight at room temperature with 1 or CDDP at concentrations between 100 and 400 μM in double -distilled H2O (20 μL total volume). […] The experiment was conducted in two biological replicates, and the band intensities were quantified and analyzed using ImageJ software. […]

Assay [1] deals with MDA-MB-231 cells. The experiment in a line: Nuclei morphology assay (DAPI). The format is cell-based, human. The settings on record: MDA-MB-231, 48 h.
Description: The potential of compound 1 to trigger apoptosis in breast cancer cells was then studied. […] High-magnification insets (1–6) illustrate representative nuclear morphologies captured in the assay. Condensed, hyperintense nuclei with reduced area (e.g., images 1, 2 and 3), irregular nuclear blebs with discontinuous chromatin (e.g., images 3 and 4), and fragmented chromatin consistent with apoptotic bodies (e.g., images 5 and 6).
7 Microscopic visualization of nuclear morphology changes in MDA-MB-231 breast cancer cells after 48 h exposure to compound 1 or CDDP. […] Images were acquired using a Leica DMI8 fluorescence microscope at 40× magnification. […]
as §1, §2

Assay [2] relates to MDA-MB-231 cells. The experiment in a line: Reactive oxygen species (H2DCFDA fluorescence). It counts as cell-based, human. The following applies: MDA-MB-231, 100 μM, 4 h, compared to nontreated control. The protocol: To measure the degree of ROS produced in MDA-MB-231 cells, 2′,7′-dichlorodihydrofluorescein diacetate (H2DCFDA), a cell-permeable fluorescent dye, was used. H2DCFDA is deacetylated by esterases and consecutively oxidized by intracellular ROS into a fluorescent molecule, dichlorofluorescein (DCF).
MDA-MB-231 cells at 4000 cells/well were seeded into a black clear -bottom 96-well plate using phenol-red free complete RMPI medium, and incubated for 48 h. The cells were treated with 100 µM of 1 for 4 h alongside an untreated sample (control). 2′,7′ -dichlorodihydrofluorescein diacetate (H 2DCFDA, 20 μM final concentration in PBS ) was added for 45 min. […] Fluorescence images were obtained using a Zeiss Observer 7 inverted microscope at excitation at 488 nm and emission at 509 […]
as §2
MDA-MB-231 cells were seeded in 6-well plates at a density of 1.2 × 10⁵ cells/well. […] The samples were then placed on microscope slides, covered with a coverslip, and their morphology was examined using a fluorescence microscope (Eclipse TS100, Nikon). […]

The subject of a further assay is MIA PaCa-2 cells. The experiment in a line: Chemosensitivity (MTT cell viability) assay, MIA PaCa-2. It counts as cell-based, human. The method, then:
All cytotoxicity assays were conducted using human cell lines: breast adenocarcinomas (MDA-MB-231 and MCF-7), pancreatic carcinoma (MIA PaCa-2) and non-cancerous epithelial retinal (ARPE-19) cell lines. All cell lines were routinely maintained as monolayer cultures in appropriate complete media:
MCF-7, MIA PaCa-2 and ARPE-19 in high glucose DMEM and MDA-MB-231 in RPMI-1640, and both media were supplemented with 10% FBS, 1 mM sodium pyruvate, 2 mM L-glutamine, and 1% pen-strep. All cells were initially grown in T-25 or T-75 flasks at 37 °C and 5% CO2. Before chemosensitivity studies, cell monolayers were passaged using trypsin-EDTA (0.05%) and diluted to a concentration of 1 x 10^4 cells/mL (or 4 x 10^4 cells mL for 24 h assays). All assays were conducted in 96-well plates, in which 100 µL of the cell suspension was added for 24 h at 37 °C and 5% CO2, and then 100 µL of compound/medium dilutions for a further 96 h (or 24 h). All compound stocks were made using sterile DMSO at 100 mM before dilution, and a maximum of 0.1% DMSO was used in each assay. After incubation, 3-(4,5-dimethylthiazol-2-yl)-2,5-diphenyltetrazolium bromide (20 µL, 5 mg/mL in PBS) was added to each well and incubated for 3 h at 37°C and 5% CO2. All solutions were then aspirated, DMSO (150 µL) added to each well, gently mixed, and the absorbance was measured at 540 nm using a ClarioStar spectrophotometer microplate reader. Results were plotted on a logarithmic scale, and the half maximal inhibitory concentration (IC50) was determined from a triplicate of triplicate repeats (n = 9) and reported as an IC 50 ± Standard Deviation (SD).

Consider “[Cp*Ir(C16H14NO)(PTA)](PF6) [Compound 1]”, for which the “Plasmid DNA migration” value in the assay with plasmid DNA was “did not induce any apparent shift”. The Nuclear morphology result with MDA-MB-231 cells [1] is “typical apoptotic features like DNA fragmentation and condensation”. Also, in the assay with MDA-MB-231 cells [2], the “ROS generation (DCF fluorescence)” value was “increase in fluorescence”. In the assay on MIA PaCa-2 cells (MIA PaCa-2, 96 h, n = 9), the 50% inhibitory concentration (IC50) (in general, the midpoint of a concentration-inhibition curve) worked out at 9 ± 1 µM. Moreover, the “Selectivity index (SI)” value with MIA PaCa-2 cells (MIA PaCa-2 compared to ARPE-19, 96 h) stood at 1.2.
